Data published in the NIST ThermoML archive (doi:10.1021/acs.jced.5b00367).

Assay: wn = mass fraction of the nth substance listed
Conditions: 101 kPa, Liquid, Alternating current cell with electrodes, w2 = 0.01

CCCCCCCCCCCCCCCC[N+](C)(C)C.[Br-] [N,N,N-trimethyl-1-hexadecanaminium bromide] + O
Conditions	electrical conductivity [S/m]
278.35 K	0.0058
278.45 K	0.00619
278.65 K	0.00607
278.75 K	0.00612
278.85 K	0.0062
278.95 K	0.00609
279.05 K	0.00617
279.15 K	0.00614
279.25 K	0.0062
279.35 K	0.00616
279.45 K	0.00619
279.55 K	0.00628
279.65 K	0.00609
279.85 K	0.0061
279.95 K	0.00631
280.05 K	0.00615
280.15 K	0.00638
280.25 K	0.00613
280.35 K	0.00642
280.45 K	0.00634
280.55 K	0.00613
280.65 K	0.00616
280.75 K	0.00638
280.95 K	0.00614
281.05 K	0.00624
281.25 K	0.00621
281.35 K	0.00655
281.45 K	0.00644
281.55 K	0.00622
281.75 K	0.00649
281.85 K	0.00648
282.05 K	0.00651
282.45 K	0.00667
282.55 K	0.00678
282.65 K	0.00648
282.75 K	0.00655
282.95 K	0.00662
283.05 K	0.00638
283.15 K	0.00641
283.25 K	0.0067
283.35 K	0.00677
283.45 K	0.00666
283.55 K	0.0068
283.75 K	0.00674
283.85 K	0.0068
283.95 K	0.00686
284.05 K	0.00653
284.15 K	0.00678
284.25 K	0.00646
284.45 K	0.00672
284.55 K	0.007
284.65 K	0.00699
284.75 K	0.00651
284.85 K	0.00686
285.05 K	0.00717
285.15 K	0.00708
285.25 K	0.00696
285.35 K	0.00725
285.45 K	0.00739
285.55 K	0.00715
285.65 K	0.00719
285.85 K	0.00716
285.95 K	0.00733
286.05 K	0.00702
286.15 K	0.00705
286.25 K	0.007
286.35 K	0.00737
286.45 K	0.00737
286.55 K	0.00715
286.65 K	0.00719
286.75 K	0.00733
286.85 K	0.0074
286.95 K	0.00708
287.05 K	0.00755
287.15 K	0.00733
287.25 K	0.00744
287.35 K	0.00761
287.45 K	0.00728
287.55 K	0.00751
287.65 K	0.00752
287.75 K	0.0073
287.85 K	0.0076
287.95 K	0.00774
288.05 K	0.0076
288.15 K	0.00778
288.25 K	0.00766
288.35 K	0.00772
288.45 K	0.00805
288.55 K	0.00791
288.65 K	0.00778
288.75 K	0.00779
288.85 K	0.0077
288.95 K	0.00795
289.05 K	0.00784
289.15 K	0.00787
289.25 K	0.00779
289.35 K	0.00805
289.45 K	0.00794
289.55 K	0.00793
289.65 K	0.00803
289.75 K	0.00826
289.85 K	0.00819
289.95 K	0.00835
290.05 K	0.0079
290.15 K	0.00861
290.25 K	0.00828
290.35 K	0.00849
290.45 K	0.00815
290.55 K	0.00824
290.65 K	0.00834
290.75 K	0.00836
290.85 K	0.00818
290.95 K	0.00836
291.05 K	0.00861
291.15 K	0.00846
291.25 K	0.0088
291.35 K	0.00865
291.45 K	0.00866
291.55 K	0.00853
291.65 K	0.00868
291.75 K	0.00867
291.85 K	0.00897
291.95 K	0.00872
292.05 K	0.00879
292.15 K	0.00913
292.25 K	0.00908
292.35 K	0.00902
292.45 K	0.00905
292.55 K	0.00904
292.65 K	0.00928
292.75 K	0.00942
292.85 K	0.00967
292.95 K	0.00959
293.05 K	0.00954
293.15 K	0.00976
293.25 K	0.01
293.35 K	0.0101
293.45 K	0.0102
293.55 K	0.0103
293.65 K	0.0105
293.75 K	0.0102
294.15 K	0.0106
294.25 K	0.0109
294.35 K	0.0107
294.45 K	0.011
294.55 K	0.0111
294.65 K	0.0109
294.75 K	0.011
294.85 K	0.0114
294.95 K	0.0113
295.05 K	0.0114
295.15 K	0.0117
295.25 K	0.0117
295.45 K	0.0122
295.65 K	0.0126
295.75 K	0.0124
295.85 K	0.0128
296.05 K	0.013
296.15 K	0.0139
296.35 K	0.0139
296.45 K	0.0145
296.55 K	0.0148
296.75 K	0.0157
296.95 K	0.0167
297.05 K	0.0178
297.15 K	0.02
297.35 K	0.0201
297.45 K	0.0217
297.55 K	0.0232
297.65 K	0.0257
297.95 K	0.0314
298.05 K	0.0353
298.25 K	0.0406
298.35 K	0.0457
298.45 K	0.0514
298.55 K	0.0565
298.75 K	0.0605
298.85 K	0.0628
299.05 K	0.0642
299.15 K	0.0647
299.25 K	0.0648
299.55 K	0.0651
299.75 K	0.0653
299.95 K	0.0654
300.25 K	0.0657
300.85 K	0.066
301.25 K	0.0662
301.45 K	0.0663
302.05 K	0.0667
302.25 K	0.0668
302.55 K	0.067
302.65 K	0.0671
302.85 K	0.0672
302.95 K	0.0666
303.05 K	0.0673
303.15 K	0.0675
303.35 K	0.0676
303.65 K	0.0678
303.85 K	0.0679
304.05 K	0.068
304.25 K	0.0682
304.45 K	0.0683
304.55 K	0.0684
304.75 K	0.0685
304.95 K	0.0687
305.15 K	0.0688
305.45 K	0.0689
305.65 K	0.0692
306.25 K	0.0695
306.45 K	0.0696
306.85 K	0.0699
307.05 K	0.07
307.35 K	0.0702
307.45 K	0.0703
307.75 K	0.0705
307.95 K	0.0707
308.65 K	0.0712
308.85 K	0.0714
309.05 K	0.0715
309.35 K	0.0712
309.55 K	0.0718
309.75 K	0.0719
309.85 K	0.0721
310.05 K	0.0722
310.25 K	0.0723
310.45 K	0.0724
310.65 K	0.0727
310.85 K	0.0728
311.25 K	0.073
311.55 K	0.0732
311.75 K	0.0735
312.05 K	0.0737
312.55 K	0.074
312.95 K	0.0744
313.35 K	0.0745
313.55 K	0.0747
313.75 K	0.0748
313.95 K	0.075
314.15 K	0.0752
314.35 K	0.0753
314.55 K	0.0755
314.75 K	0.0756
314.95 K	0.0759
315.45 K	0.0761
315.55 K	0.0762
315.75 K	0.0764
315.95 K	0.0765
316.15 K	0.0767
316.35 K	0.0769
316.65 K	0.0771
317.05 K	0.0775
317.15 K	0.0776
318.05 K	0.0778
318.25 K	0.0783
318.45 K	0.0786
318.95 K	0.079
319.25 K	0.0792
319.75 K	0.0798
320.25 K	0.08
320.35 K	0.0802
320.65 K	0.0816
321.85 K	0.0817
322.05 K	0.0819
322.25 K	0.082
322.35 K	0.0823
322.75 K	0.0824
322.85 K	0.0826
323.15 K	0.083
323.35 K	0.0832
323.45 K	0.0834
323.65 K	0.0837
323.85 K	0.0839
324.05 K	0.0841
324.35 K	0.0842
324.45 K	0.0843
324.65 K	0.0846
324.75 K	0.0848
324.85 K	0.0849
325.15 K	0.0853
325.35 K	0.0855
325.55 K	0.0856
325.65 K	0.0858
325.85 K	0.086
326.15 K	0.0862
326.25 K	0.0863
326.45 K	0.0866
326.55 K	0.0869
326.75 K	0.087
326.95 K	0.0871
327.05 K	0.0873
327.55 K	0.0876
327.75 K	0.0876
333.45 K	0.0912
333.65 K	0.0914
333.75 K	0.0915
334.05 K	0.0916
334.35 K	0.092
334.75 K	0.0922
334.95 K	0.0924
335.35 K	0.0926
335.55 K	0.0927
335.75 K	0.0929
335.95 K	0.093
336.15 K	0.0932
336.55 K	0.0934
336.65 K	0.0935
336.85 K	0.0936
337.05 K	0.0937
337.25 K	0.0939
337.55 K	0.0942
337.75 K	0.0943
338.05 K	0.0945
338.15 K	0.0947
338.55 K	0.095
338.75 K	0.0951
338.95 K	0.0952
339.05 K	0.0953
339.15 K	0.0954
339.35 K	0.0955
339.65 K	0.0957
339.85 K	0.0959
340.05 K	0.096
340.35 K	0.0962
340.55 K	0.0963
340.65 K	0.0964
340.85 K	0.0966
341.05 K	0.0967
341.15 K	0.0968
341.35 K	0.097
341.55 K	0.0971
341.65 K	0.0972
341.85 K	0.0973
341.95 K	0.0974
342.05 K	0.0975
342.25 K	0.0977
342.45 K	0.0979
342.75 K	0.098
342.95 K	0.0982
343.05 K	0.0983
343.25 K	0.0987
343.45 K	0.0989
343.75 K	0.099
343.95 K	0.0991
344.05 K	0.0993
344.35 K	0.0995
344.55 K	0.0996
344.75 K	0.1
345.05 K	0.1
345.35 K	0.1
345.55 K	0.101
345.85 K	0.101
346.05 K	0.101
346.25 K	0.101
346.55 K	0.101
346.75 K	0.102
346.85 K	0.102
347.05 K	0.102
347.25 K	0.102
347.55 K	0.102
347.75 K	0.102
348.05 K	0.103
348.15 K	0.103
